“And” between values parts separate entries of the source, which are not always exact repeats. Equal entries are not always repeated.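 Cells were grown in 96-well plates and exposed to each compound for 48 hours at five concentrations; endpoints were interpolated linearly between bracketing concentrations, or set to the highest concentration if not reached. GI50 = concentration required for 50% inhibition of growth. TGI is the concentration that stops growth completely.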
Columns and labels:
Experiment in all cases: NCI-60 cell line screen, 48 h
SK-MEL-2 melanoma = tested on: SK-MEL-2 melanoma
TK-10 renal = tested on: TK-10 renal
UACC-257 melanoma = tested on: UACC-257 melanoma
HL-60(TB) leukemia = tested on: HL-60(TB) leukemia
COLO 205 colon = tested on: COLO 205 colon
HOP-92 NSCLC = tested on: HOP-92 NSCLC
MDA-MB-231 breast = tested on: MDA-MB-231 breast
IGROV1 ovarian = tested on: IGROV1 ovarian
K-562 leukemia = tested on: K-562 leukemia
RPMI-8226 leukemia = tested on: RPMI-8226 leukemia

| SMILES | TGI (SK-MEL-2 melanoma) [µM] | TGI (TK-10 renal) | TGI (UACC-257 melanoma) | GI50 (HL-60(TB) leukemia) | TGI (COLO 205 colon) | TGI (HOP-92 NSCLC) | GI50 (MDA-MB-231 breast) [µM] | TGI (MDA-MB-231 breast) [µM] | GI50 (IGROV1 ovarian) [µM] | TGI (IGROV1 ovarian) [µM] | GI50 (SK-MEL-2 melanoma) [µM] | GI50 (TK-10 renal) [µM] | GI50 (UACC-257 melanoma) [µM] | TGI (HL-60(TB) leukemia) [µM] | GI50 (COLO 205 colon) [µM] | GI50 (K-562 leukemia) [µM] | TGI (K-562 leukemia) [µM] | GI50 (RPMI-8226 leukemia) [µM] | TGI (RPMI-8226 leukemia) [µM] | GI50 (HOP-92 NSCLC) [µM] |
| --- | --- | --- | --- | --- | --- | --- | --- | --- | --- | --- | --- | --- | --- | --- | --- | --- | --- | --- | --- | --- |
| CC1OC(O[C@@H]2C=C3CC[C@@H]4[C@H](CC[C@]5(C)[C@@H](c6ccc(=O)oc6)CC[C@]45O)[C@@]3(C)CC2)C(O)C(O)C1O (some centres undefined) | 0.0243 | 0.00939 µM and 0.006 µM | 0.0197 µM and 0.04 µM | 0.0015 µM and 0.00592 µM | 0.0208 µM and 0.0477 µM | 0.003 µM and 0.000676 µM | 0.000383 | 0.0136 | – | – | – | – | – | – | – | – | – | – | – | – |
| CC/C(=C/c1ccc(OC)cc1)[N+](=O)[O-] | 4.62 | 3.28 µM | 4.56 µM | 1.89 µM | 3.75 µM | 3.43 µM | 2.31 | 4.9 | 2.82 | 8.16 | 2.02 | 1.75 | 2.07 | 5.47 | 1.89 | 1.95 | > 100 | 1.76 | 5.31 | 1.74 |
| N#Cc1ccc2c(-c3ccnc(NC4CC4)n3)c(-c3ccc(F)cc3)nn2c1 | > 25 | > 25 µM | > 25 µM | > 25 µM | > 25 µM | > 25 µM | > 25 | > 25 | > 25 | > 25 | > 25 | > 25 | > 25 | > 25 | > 25 | > 25 | > 25 | > 25 | > 25 | > 25 |
| NS(=O)(=O)c1cccc(Nc2cc(-c3ccc(F)cc3)[nH]n2)c1 | > 25 | > 25 µM | > 25 µM | > 25 µM | > 25 µM | > 25 µM | > 25 | > 25 | 19.3 | > 25 | 16.1 | 20.3 | > 25 | > 25 | > 25 | > 25 | > 25 | > 25 | > 25 | > 25 |
| O=C1c2ccccc2-c2cn(Cc3ccccc3)c3cccc(c23)C1c1cccnc1 (centres undefined) | > 50 | > 50 µM | > 50 µM | 2.4 µM | 9.44 µM | > 50 µM | 4.18 | > 50 | 3.41 | > 50 | 3.9 | 20.8 | 11.2 | 19.5 | 2.26 | 2.09 | > 50 | – | – | 2.74 |
| COc1ccc(/C=C\c2cc(OC)c(OC)c(OC)c2)cc1NC(=O)/C=C/c1cc(OC)c(OC)c(OC)c1 | – | > 100 µM | > 100 µM | 1.95 µM | 18.5 µM | > 100 µM | 7.81 | > 100 | 9.47 | > 100 | – | > 100 | 30.8 | 8.03 | 4.41 | – | – | 2.9 | > 100 | 3.6 |
| COC(=O)c1sc(-n2cnc3cc(OC)c(OC)cc32)cc1OCc1ccccc1C(F)(F)F | > 25 | > 25 µM | > 25 µM | > 25 µM | > 25 µM | 18.1 µM | 5.79 | > 25 | > 25 | > 25 | > 19 | 11 | > 25 | > 25 | > 25 | > 25 | > 25 | > 25 | > 25 | 4.31 |
| COc1oc(C2C/C(=C/C(C)=C/C(C)=C/C(C)=C/c3ccc([N+](=O)[O-])cc3)CO2)c(C)c(=O)c1C (centres undefined) | > 75.8 | > 45.6 µM | 66 µM | – | 24.6 µM | 40 µM | – | 38.9 | – | 42.5 | – | – | – | 8.13 | – | – | 21.3 | – | 20.9 | – |
| CCOC(=O)Nc1cc2c(c(N)n1)N=C(c1ccc(Cl)cc1Cl)CN2 | 19.7 | 35.4 µM | 90.6 µM | – | 4.85 µM | 44.7 µM | – | 16.2 | – | 34.3 | – | – | – | 0.0585 | – | – | 11.9 | – | > 100 | – |
| C=C(CN1CCN(c2cc(C(F)(F)F)cc(C(F)(F)F)c2)CC1)c1ccc(C(=O)Nc2ccccc2N)cc1 | > 100 | > 100 µM | 64.9 µM | 1.05 µM | 52.6 µM | 7.45 µM | 1.06 | 17.9 | 4.2 | 27.3 | 10.2 | 12.3 | 6.57 | > 100 | 7.11 | 1.69 | > 100 | 1.65 | 4.22 | 1.88 |
| Oc1ccccc1/C=N\NC(=S)Nc1ccc(F)cc1 | > 100 | > 100 µM | > 65.3 µM | 0.906 µM | > 43 µM | > 100 µM | 1.74 | > 100 | 1.31 | 17.7 | 5.96 | 6.83 | 2.68 | 6.22 | 4.8 | 0.582 | > 100 | 1.34 | – | 0.962 |
| COc1cc(C(=O)/C=C/c2c[nH]c3ccccc23)cc(OC)c1OC | 19.2 | 9.56 µM | – | < 0.0145 µM | 0.132 µM | 6.46 µM | 0.132 | 12.4 | 0.0713 | 25.3 | 0.0392 | 0.188 | – | 0.0422 | 0.0192 | < 0.01 | 12.5 | 0.0319 | 2.82 | 0.0269 |
| CCOC(=O)c1c(CN2CCCCC2)nc2ccc(Cl)cc2c1-c1ccccc1 | 40.6 | > 100 µM | 56.5 µM | 18.1 µM | 58.3 µM | 39.9 µM | 15.9 | 35 | 24 | > 100 | 18.9 | 42.7 | 22.4 | 43.4 | 22.9 | 25.6 | 92.7 | 20.4 | 46.2 | 15.8 |
